# From patent publication US9173891B2, “Treatment of ovarian cancer using an anticancer agent conjugated to an angiopep-2 analog” (Angiochem, Inc., priority 2009, dated 2015)
# What was measured:
# [1] = tested on: metastatic ovarian cancer; experiment: Prior standard chemotherapy of the ovarian cancer patient before the ANG1005 trial; assay type: in vivo, human; settings: prior therapy 2007-2008
# Method: The patient was originally diagnosed in November 2006 with ovarian cancer. […] From February 2008 to March 2008, the patient received a combination of Gemzar® (gemcitabine) and […]® (topotecan). The patient was again given a combination of Taxotere® (docetaxel) and carboplatin from March 2008 until July 2008. In November 2008, the patient was administered Doxil® (doxorubicin).
# LRP receptor = target: T1, LRP receptor (Rattus norvegicus, UniProt G3V928); experiment: In situ rat brain perfusion, uptake inhibition by LRP ligands or Angiopep peptides; assay type: in vivo; settings: for brain uptake of an Angiopep conjugate: FIG. 6B
# T1 construct: from tissue; host or cells: brain of male Sprague Dawley rats (in situ perfusion)
# T1 sequence (G3V928 20-4545): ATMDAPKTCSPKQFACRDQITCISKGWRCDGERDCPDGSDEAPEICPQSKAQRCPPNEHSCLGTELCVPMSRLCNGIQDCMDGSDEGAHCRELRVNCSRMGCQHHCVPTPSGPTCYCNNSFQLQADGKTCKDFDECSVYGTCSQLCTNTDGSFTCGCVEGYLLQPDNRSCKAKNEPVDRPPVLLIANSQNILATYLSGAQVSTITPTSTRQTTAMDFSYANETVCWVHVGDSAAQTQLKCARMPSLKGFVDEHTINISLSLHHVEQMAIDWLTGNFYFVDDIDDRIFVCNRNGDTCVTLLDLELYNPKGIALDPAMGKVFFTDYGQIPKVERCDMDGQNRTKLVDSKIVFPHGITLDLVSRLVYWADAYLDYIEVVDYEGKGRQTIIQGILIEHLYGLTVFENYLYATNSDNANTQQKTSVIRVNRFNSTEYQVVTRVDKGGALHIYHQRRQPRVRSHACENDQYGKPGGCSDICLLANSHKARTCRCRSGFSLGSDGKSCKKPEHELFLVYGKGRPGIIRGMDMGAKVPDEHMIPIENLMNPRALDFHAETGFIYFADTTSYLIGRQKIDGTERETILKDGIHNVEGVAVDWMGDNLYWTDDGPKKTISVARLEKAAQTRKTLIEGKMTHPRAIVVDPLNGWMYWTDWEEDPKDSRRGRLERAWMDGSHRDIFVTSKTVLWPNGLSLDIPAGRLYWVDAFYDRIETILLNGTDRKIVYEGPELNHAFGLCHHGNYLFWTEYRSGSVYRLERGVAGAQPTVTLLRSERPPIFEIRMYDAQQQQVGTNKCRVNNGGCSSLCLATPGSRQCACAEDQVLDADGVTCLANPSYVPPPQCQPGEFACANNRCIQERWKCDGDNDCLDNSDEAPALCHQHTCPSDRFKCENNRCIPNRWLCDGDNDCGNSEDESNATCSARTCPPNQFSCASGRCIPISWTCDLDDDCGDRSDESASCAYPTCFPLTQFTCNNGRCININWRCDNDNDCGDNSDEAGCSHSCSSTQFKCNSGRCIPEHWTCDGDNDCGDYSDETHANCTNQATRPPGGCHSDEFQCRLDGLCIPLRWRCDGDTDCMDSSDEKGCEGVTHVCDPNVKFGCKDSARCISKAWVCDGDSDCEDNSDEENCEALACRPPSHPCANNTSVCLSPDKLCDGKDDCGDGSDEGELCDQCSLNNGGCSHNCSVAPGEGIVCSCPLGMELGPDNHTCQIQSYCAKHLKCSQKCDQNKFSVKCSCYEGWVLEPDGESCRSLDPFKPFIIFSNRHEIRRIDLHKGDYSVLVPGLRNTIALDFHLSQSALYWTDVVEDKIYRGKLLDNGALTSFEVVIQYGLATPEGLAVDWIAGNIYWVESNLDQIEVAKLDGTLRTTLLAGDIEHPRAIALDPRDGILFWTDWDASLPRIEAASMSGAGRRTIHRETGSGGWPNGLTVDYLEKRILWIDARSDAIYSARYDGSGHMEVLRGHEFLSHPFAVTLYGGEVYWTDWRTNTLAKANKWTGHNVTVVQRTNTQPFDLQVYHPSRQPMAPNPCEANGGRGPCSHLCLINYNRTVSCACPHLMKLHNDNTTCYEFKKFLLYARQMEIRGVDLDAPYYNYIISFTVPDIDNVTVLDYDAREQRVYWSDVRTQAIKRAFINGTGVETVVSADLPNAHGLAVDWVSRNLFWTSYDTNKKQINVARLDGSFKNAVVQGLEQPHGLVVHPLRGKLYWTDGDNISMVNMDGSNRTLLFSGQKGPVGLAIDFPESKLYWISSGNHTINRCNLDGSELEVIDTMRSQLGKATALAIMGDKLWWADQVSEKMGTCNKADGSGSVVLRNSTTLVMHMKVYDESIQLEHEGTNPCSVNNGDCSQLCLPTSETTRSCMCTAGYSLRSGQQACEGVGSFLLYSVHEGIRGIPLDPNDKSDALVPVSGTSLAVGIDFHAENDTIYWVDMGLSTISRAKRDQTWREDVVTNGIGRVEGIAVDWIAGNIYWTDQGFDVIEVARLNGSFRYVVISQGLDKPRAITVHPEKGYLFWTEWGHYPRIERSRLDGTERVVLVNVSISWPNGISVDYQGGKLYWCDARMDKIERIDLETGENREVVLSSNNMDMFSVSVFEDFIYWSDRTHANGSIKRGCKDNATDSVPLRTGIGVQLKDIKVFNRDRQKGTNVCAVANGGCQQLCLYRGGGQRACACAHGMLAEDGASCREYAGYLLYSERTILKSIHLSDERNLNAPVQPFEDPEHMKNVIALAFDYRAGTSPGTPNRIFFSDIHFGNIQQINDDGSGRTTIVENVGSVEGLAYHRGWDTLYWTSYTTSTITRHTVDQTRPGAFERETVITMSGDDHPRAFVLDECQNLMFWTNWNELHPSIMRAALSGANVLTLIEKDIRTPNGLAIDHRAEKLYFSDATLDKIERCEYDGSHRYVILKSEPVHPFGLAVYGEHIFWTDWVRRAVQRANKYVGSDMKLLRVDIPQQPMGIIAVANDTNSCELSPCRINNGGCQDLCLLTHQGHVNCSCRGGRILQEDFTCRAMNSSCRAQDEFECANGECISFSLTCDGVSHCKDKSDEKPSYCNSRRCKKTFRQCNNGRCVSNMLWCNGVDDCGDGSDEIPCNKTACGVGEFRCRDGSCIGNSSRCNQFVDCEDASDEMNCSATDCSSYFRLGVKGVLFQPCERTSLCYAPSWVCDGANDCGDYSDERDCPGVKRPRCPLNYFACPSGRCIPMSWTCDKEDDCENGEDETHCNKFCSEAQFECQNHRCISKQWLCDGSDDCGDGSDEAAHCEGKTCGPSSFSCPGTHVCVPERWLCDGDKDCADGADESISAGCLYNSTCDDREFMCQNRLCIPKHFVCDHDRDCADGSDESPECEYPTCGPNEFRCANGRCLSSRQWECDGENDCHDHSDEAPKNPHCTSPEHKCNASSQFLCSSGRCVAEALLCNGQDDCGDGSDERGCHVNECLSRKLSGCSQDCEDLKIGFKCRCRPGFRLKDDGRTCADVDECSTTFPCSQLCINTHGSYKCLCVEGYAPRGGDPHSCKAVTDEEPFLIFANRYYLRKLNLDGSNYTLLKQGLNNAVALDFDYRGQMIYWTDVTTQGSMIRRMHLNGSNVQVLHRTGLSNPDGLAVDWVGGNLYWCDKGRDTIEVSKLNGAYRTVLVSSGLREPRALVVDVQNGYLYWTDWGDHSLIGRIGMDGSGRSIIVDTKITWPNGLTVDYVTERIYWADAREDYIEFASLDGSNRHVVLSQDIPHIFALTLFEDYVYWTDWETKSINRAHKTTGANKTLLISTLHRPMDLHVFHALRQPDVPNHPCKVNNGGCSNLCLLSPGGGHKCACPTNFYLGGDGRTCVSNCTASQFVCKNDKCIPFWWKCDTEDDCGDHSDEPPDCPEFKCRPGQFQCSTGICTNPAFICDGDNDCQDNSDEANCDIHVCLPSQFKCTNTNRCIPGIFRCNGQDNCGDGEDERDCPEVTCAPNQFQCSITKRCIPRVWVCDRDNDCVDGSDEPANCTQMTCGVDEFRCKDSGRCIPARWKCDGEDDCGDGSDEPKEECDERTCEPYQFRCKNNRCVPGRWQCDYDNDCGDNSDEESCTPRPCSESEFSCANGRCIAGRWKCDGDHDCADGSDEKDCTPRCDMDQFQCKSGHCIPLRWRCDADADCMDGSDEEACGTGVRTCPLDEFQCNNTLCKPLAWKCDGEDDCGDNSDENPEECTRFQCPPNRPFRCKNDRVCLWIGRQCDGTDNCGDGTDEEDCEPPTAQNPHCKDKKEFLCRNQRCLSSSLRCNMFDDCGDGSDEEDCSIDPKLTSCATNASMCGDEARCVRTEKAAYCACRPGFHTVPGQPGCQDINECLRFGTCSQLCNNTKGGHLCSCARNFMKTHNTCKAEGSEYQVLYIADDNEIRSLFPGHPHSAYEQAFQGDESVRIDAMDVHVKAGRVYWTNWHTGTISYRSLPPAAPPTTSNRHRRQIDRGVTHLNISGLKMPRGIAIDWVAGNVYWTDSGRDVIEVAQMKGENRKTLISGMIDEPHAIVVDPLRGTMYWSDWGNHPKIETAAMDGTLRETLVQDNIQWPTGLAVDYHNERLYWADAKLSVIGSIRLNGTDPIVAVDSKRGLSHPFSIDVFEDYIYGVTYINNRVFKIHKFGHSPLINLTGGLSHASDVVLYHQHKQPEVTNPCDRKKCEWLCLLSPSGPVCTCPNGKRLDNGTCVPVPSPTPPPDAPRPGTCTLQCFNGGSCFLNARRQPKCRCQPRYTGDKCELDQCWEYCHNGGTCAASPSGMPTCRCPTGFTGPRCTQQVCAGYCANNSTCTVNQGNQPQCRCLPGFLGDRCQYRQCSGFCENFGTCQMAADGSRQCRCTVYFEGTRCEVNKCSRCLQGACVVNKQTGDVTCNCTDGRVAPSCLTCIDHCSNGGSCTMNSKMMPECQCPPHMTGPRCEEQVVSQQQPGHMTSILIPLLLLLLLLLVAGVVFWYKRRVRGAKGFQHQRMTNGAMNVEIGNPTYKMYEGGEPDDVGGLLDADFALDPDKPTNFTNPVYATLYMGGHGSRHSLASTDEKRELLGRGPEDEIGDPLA
# Excerpt: The methods of the invention may be especially useful in treating cancers having cells that express low density lipoprotein-related protein (LRP) receptor. The LRP receptor is expressed on the surface of cells, and is capable of binding to various substrates including aprotinin, β-amyloid, tissue plasminogen activator (tPA), melano-transferrin, and receptor associated peptide (RAP). The peptides described herein were designed based on the consensus kunitz-domain sequences that act as LRP receptor ligands (see, e.g., PCT Publication No. WO 2004/060403). Uptake of the conjugates including Angiopep-1 or Angiopep-2 is inhibited by LRP ligands, thus indicating involvement of LRP in this process. […] Angiopep-2 (10 or 100 μM) is similarly able to reduce uptake of the conjugates into cells (FIGS. 6A and 6B).
# The results described in FIGS. 4A and 4B were obtained using an in situ rat brain perfusion. Male Sprague Dawley rats were anesthetized with […] i.p., of sodium pentobarbital (Nembutal, Abbott Laboratories, North Chicago, Ill., USA). The neck region was shaved and the common carotid artery was exposed. The external carotid artery was ligated, but the pterygopalatine artery was not occluded. A PE-60 catheter filled with heparinized 0.9% saline (100 IU/mL) was inserted into the common carotid artery upon ligation. A heating pad linked to YSI feedback controller device (Yellow Springs Instruments, Yellow Springs, Ohio, USA) was used to maintain the rat body temperature at 37° C. The PE-60 catheter was attached to a glass syringe filled with the tracer; with or without inhibitors, in a bicarbonate-buffered physiological saline (Smith Q R., Pharm Biotechnol 8:285-307, 1996) mounted on a Harvard infusion pump (Harvard Biosciences, South Natick, Mass., USA) maintained at 37° C. Dual-labeled experiments were performed for studying the brain uptake. [^14C]Sucrose was used as a vascular volume marker. Perfusion was started upon severing the heart to stop blood flow to the brain. […] The samples were weighed and counted using the gamma counter (Cobra 600) to determine the ^125I labeled drug. […]
Compound,course of patient's cancer after receiving the agent [1],other results
N.N.O=C([O-])C1(C(=O)[O-])CCC1.[Pt+2] [carboplatin],continued to progress,
CC(=O)O[C@@]12CO[C@@H]1C[C@H](O)[C@@]1(C)C(=O)[C@H](O)C3=C(C)[C@@H](OC(=O)[C@H](O)[C@@H](NC(=O)OC(C)(C)C)c4ccccc4)C[C@@](O)([C@@H](OC(=O)c4ccccc4)[C@H]21)C3(C)C [docetaxel],continued to progress,
COc1cccc2c1C(=O)c1c(O)c3c(c(O)c1C2=O)C[C@@](O)(C(=O)CO)C[C@@H]3O[C@H]1C[C@H](N)[C@H](O)[C@H](C)O1 [doxorubicin],continued to progress,
Nc1ccn([C@@H]2O[C@H](CO)[C@@H](O)C2(F)F)c(=O)n1 [gemcitabine],continued to progress,
CC[C@@]1(O)C(=O)OCc2c1cc1n(c2=O)Cc2cc3c(CN(C)C)c(O)ccc3nc2-1 [topotecan],continued to progress,
"Angiopep-2: peptide vector, sequence TFFYGGSRGKRNNFKTEEY",,"uptake of the conjugates into cells (LRP receptor; Angiopep-2 10 or 100 μM, FIG. 6A): reduce uptake"
"RAP: LRP ligand, receptor associated protein (RAP)",,brain uptake of an Angiopep conjugate (LRP receptor; RAP 200 nM co-perfused): reducing brain uptake
aprotinin,,brain uptake of an Angiopep conjugate (LRP receptor; aprotinin 10 μM co-perfused): reducing brain uptake
